From patent US11084826B2, “RSV antiviral pyrazolo- and triazolo-pyrimidine compounds” (Janssen Sciences Ireland Unlimited Company, priority 2015, dated 2021) come the findings set out here.

The subject of series [1] is rgRSV224 virus. Description: Antiviral activity: inhibition of rgRSV224 (GFP-expressing RSV) replication in HeLa cells, GFP expression read-out. The settings on record: human respiratory syncytial virus, HeLa, read-out: RSV HELA pEC50, rgRSV224 virus (MOI=1) in HeLa cells, GFP read-out (converted). The series is classed as cell-based, respiratory syncytial virus (RSV). Put shortly: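 EC50 is the 50% inhibitory concentration for GFP expression, read by laser microscopy three days after rgRSV224 infection (MOI=1) of HeLa cells (3,000/well). Compounds were tested as 9 serial 4-fold dilutions at 0.05% DMSO, and cells were incubated at 37° C under 5% CO2.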

Series [2] can be described thus: Cytotoxicity in HeLa cells, ATP content measured with the ATPlite kit. The series is classed as cell-based. The settings on record: human, TOX HELA pCC50. A general note: In ATP-based viability assays light output follows the ATP content of the culture.

The structures appear in SMILES notation.

The compound `CCc1cc(C(=O)N2CCCCC[C@H]2C)nc2cc(-c3ccc(-c4ccc(C(=O)O)cn4)cc3F)nn12` [Compound F15] showed a melting point of 181 to 182 °C. For the same compound, in series [1], the EC50 was 120 nM. In addition, the CC50 at 3 days in series [2] was greater than 25100 nM.
Consider `CCOC(=O)Nc1ccc(-c2cc3nc(C(=O)N4CCCCCC4C)cc(CC)n3n2)cc1` (stereo not drawn) [Compound C7], for which the melting point is 195 to 200 °C. In addition, the EC50 in series [1] was 1380 nM. In series [2], this compound had a 50% cytotoxic concentration (CC50) at 3 days greater than 100000 nM.
The like results for `CCc1cc(C(=O)N2CCCCC[C@H]2C)nc2cc(-c3ccc(N4CC[C@@H](C(=O)O)C4)cc3F)nn12` [Compound W6] were, in that order, 214.84 °C, 81.3 nM and 69200 nM.
`CCc1cc(C(=O)N2CCn3cccc3C2C)nc2cc(-c3ccc(/C=C/C(=O)O)cc3F)nn12` (stereo not drawn) [Compound M43] had a melting point of 255 to 260 °C. Also, in series [1], the EC50 is 47.9 nM. Moreover, the CC50 at 3 days in series [2] is greater than 25100 nM.
`CCc1cc(C(=O)N2CCc3sccc3[C@H]2C)nc2cc(-c3cccc(/C=C/C(=O)O)c3F)nn12` (single isomer, unassigned) [Compound M49]: the melting point came out at 262.19 °C. Besides, the EC50 in series [1] is 10 nM. In addition, half-maximal cytotoxicity in series [2] (CC50 at 3 days) was put at 41700 nM.
In turn, `CCc1cc(C(=O)N2CCCCC[C@H]2C)nc2cc(-c3ccc(-n4ccc(C(=O)O)n4)cc3F)nn12` [Compound W3] yielded a melting point of 207.63 °C. Also, the EC50 in series [1] was 107 nM. The same compound gave a CC50 at 3 days in series [2] of 60300 nM.
Regarding `CCc1cc(C(=O)N2CCCCCC2C)nc2cc(-c3ccc(NC(=O)CCC(=O)NC)cc3F)nn12` (stereo not drawn) [Compound E27], the melting point was 215 to 220 °C. In series [1], the EC50 was 117 nM. In addition, the half-maximal cytotoxic concentration (CC50) at 3 days in series [2] was greater than 25100 nM.
The like results for `CCc1cc(C(=O)N2CCCCCC2C)nc2cc(-c3ccc(NC(=O)NCC4CCCO4)cc3F)nn12` (stereo not drawn) [Compound B1] were, in that order, 140 °C, 129 nM and greater than 100000 nM.
For the compound `CCc1cc(C(=O)N2CCc3sccc3[C@H]2C)nc2cc(-c3ccc4c(c3F)OCC(C(=O)O)=C4)nn12` (racemic) [Compound F66], the melting point turned out to be 256.54 °C. The EC50 in series [1] is 7.08 nM. Further, half-maximal cytotoxicity in series [2] (CC50 at 3 days) was put at 15500 nM.
`CCc1cc(C(=O)N2CCCCCC2C)nc2cc(-c3ccc(N/C(=N/C#N)NC4CC4)cc3)nn12` (stereo not drawn) [Compound B18] had a melting point of 222 to 223 °C. Besides, in series [1], the EC50 was 1150 nM. Moreover, the CC50 at 3 days in series [2] is greater than 25100 nM.
The compound `CCc1cc(C(=O)N2CCc3ccccc3[C@H]2C)nc2cc(-c3ccc(N4CC[C@H](C(=O)O)C4)cc3F)nn12` [Compound W28] returned a melting point of 218.99 °C. In series [1], the EC50 is 4.27 nM. In addition, the CC50 at 3 days in series [2] was 51300 nM.
The like results for `CCc1cc(C(=O)N2CCCCC[C@H]2C)nc2cc(-c3ccc(N(C)c4ccc(C(=O)O)cn4)cc3F)nn12` (racemic) [Compound W20] were, in that order, 132 °C, 355 nM and 63100 nM.
In turn, `CCc1cc(C(=O)N2CCCCC[C@H]2C)nc2cc(-c3ccc4c(C(=O)O)coc4c3F)nn12` [Compound F40] gave a melting point of 213.87 °C. For the same compound, the EC50 in series [1] was 132 nM. This compound also showed a CC50 at 3 days in series [2] of 52500 nM.
As for `C[C@@H]1CCCCCN1C(=O)c1cc(C2(C)CC2)n2nc(-c3ccc4c(c3F)OCC(C(=O)O)=C4)cc2n1` (racemic) [Compound F51], the melting point is 261.88 °C. The EC50 in series [1] was 27.5 nM. Half-maximal cytotoxicity in series [2] (CC50 at 3 days) was put at 57500 nM.
The like results for `CCc1cc(C(=O)N2CCCCC[C@H]2C)nc2cc(-c3ccc(N4CCC(CO)(C(=O)O)C4)cc3F)nn12` (stereo partly drawn) [Compound W18] were, in that order, 276.58 °C, 81.3 nM and greater than 100000 nM.
In turn, `CCc1cc(C(=O)N2CCCCC[C@H]2C)nc2cc(-c3ccc(N4CC[C@](C)(C(=O)O)C4)cc3F)nn12` [Compound W49] registered a melting point of 179.2 °C. Also, the EC50 in series [1] was 43.7 nM. The same compound showed a CC50 at 3 days in series [2] of 53700 nM.
The like results for `CCc1cc(C(=O)N2CCCCCC2C)nc2cc(-c3ccc(N/C(=N/C#N)NCC4CCCO4)cc3F)nn12` (stereo not drawn) [Compound B16] were, in that order, 160 to 165 °C, 589 nM and greater than 25100 nM.
In turn, `C[C@@H]1c2ccccc2CCN1C(=O)c1cc(C2CC2)n2nc(-c3ccc(C4C[C@H]4C(=O)O)cc3F)cc2n1` (single isomer, unassigned) [Compound O5] came in with a melting point of 222.18 °C. In series [1], the EC50 is 11 nM. In series [2], this compound had a CC50 at 3 days of 55000 nM.
As for `CCc1cc(C(=O)N2CCCCCC2C)nc2nc(-c3ccc(NC(=O)C4CC4)cc3F)nn12` (stereo not drawn) [Compound T1], the melting point is 210 to 215 °C. The EC50 in series [1] was 550 nM. The compound also gave a CC50 at 3 days in series [2] greater than 100000 nM.
The like results for `CCc1cc(C(=O)N2CCCCCC2C)nc2cc(-c3ccc(NC(=O)NCC4CC4)cc3)nn12` (stereo not drawn) [Compound B9] were, in that order, 165 to 170 °C, 501 nM and greater than 100000 nM.
`CCc1cc(C(=O)N2CCCCCC2C)nc2cc(-c3ccc(C(=O)NCc4ccco4)cc3F)nn12` (stereo not drawn) [Compound L7] showed a melting point of 168 °C. Moreover, in series [1], the EC50 was 240 nM. In addition, the CC50 at 3 days in series [2] was greater than 25100 nM.
With `CCc1cc(C(=O)N2CCCCCC2C)nc2cc(-c3ccc(S(=O)(=O)NC)cc3F)nn12` (stereo not drawn) [Compound P3], the melting point was 116 °C. The EC50 in series [1] was 692 nM. The cytotoxic concentration (CC50) at 3 days in series [2] is greater than 25100 nM.
Take `CCc1cc(C(=O)N2CCCCCC2C)nc2cc(-c3ccc(C#N)cc3F)nn12` (stereo not drawn) [Compound H5]: the melting point came to 95 °C. Also, in series [1], the EC50 was 813 nM. This compound showed a 50% cytotoxic concentration (CC50) at 3 days in series [2] greater than 25100 nM.
Regarding `CCc1cc(C(=O)N2CCCCCC2C)nc2cc(-c3ccc(C(N)=O)cc3)nn12` (stereo not drawn) [Compound A25], the melting point was 155 to 160 °C. The EC50 in series [1] is 550 nM. The cytotoxic concentration (CC50) at 3 days in series [2] was greater than 100000 nM.
As for `CCc1cc(C(=O)N2CCCCCC2C)nc2cc(-c3ccc(NC(=O)C4CC4)cc3C)nn12` (stereo not drawn) [Compound E16], the melting point worked out at 223 °C. The EC50 in series [1] was 1320 nM. Besides, the half-maximal cytotoxic concentration (CC50) at 3 days in series [2] was greater than 10000 nM.
`C[C@@H]1CCCCCN1C(=O)c1cc(C2(C)CC2)n2nc(-c3ccc4cc(C(=O)O)c(=O)oc4c3F)cc2n1` (racemic) [Compound F49] gave a melting point of 218.14 °C. For the same compound, the EC50 in series [1] was 26.3 nM. The 50% cytotoxic concentration (CC50) at 3 days in series [2] is 57500 nM.
For `CCc1cc(C(=O)N2CCCCCC2C)nc2cc(-c3ccc(C(=O)NNCC4CC4)cc3F)nn12` (stereo not drawn) [Compound L9], the melting point was determined as 140 °C. In series [1], the EC50 was 372 nM. Also, in series [2], the half-maximal cytotoxic concentration (CC50) at 3 days is greater than 25100 nM.
`CCc1cc(C(=O)N2CCCCC[C@H]2C)nc2cc(-c3ccc([C@@H]4C[C@@H]4C(=O)O)cc3F)nn12` (racemic) [Compound O16]: the melting point turned out to be 333.46 °C. Also, the EC50 in series [1] was 170 nM. In series [2], the CC50 at 3 days is greater than 100000 nM.
With `CCc1cc(C(=O)N2CCCCCC2C)nc2cc(-c3ccc(NC(=O)Cc4ccncc4)cc3)nn12` (stereo not drawn) [Compound E23], the melting point lay in the range of 232 to 234 °C. Besides, the EC50 in series [1] was 646 nM. The compound also had a cytotoxic concentration (CC50) at 3 days in series [2] greater than 25100 nM.
`CCc1cc(C(=O)N2CCCCCC2C)nc2cc(-c3ccc(NS(C)(=O)=O)cc3F)nn12` (stereo not drawn) [Compound D1]: the melting point was in the range of 135 to 140 °C. Also, the EC50 in series [1] is 288 nM. In series [2], this compound had a CC50 at 3 days of 51300 nM.
On the same counts, the results for `C=CCC(=O)Nc1ccc(-c2cc3nc(C(=O)N4CCCCCC4C)cc(CC)n3n2)cc1` (stereo not drawn) [Compound E21] are 243 to 244 °C, 603 nM and greater than 25100 nM.
Consider `C[C@@H]1c2ccsc2CCN1C(=O)c1cc(C2(C)CC2)n2nc(-c3ccc([C@@H]4C[C@H]4C(=O)O)cc3F)cc2n1` [Compound O21], for which the melting point was 207.61 °C. In addition, the EC50 in series [1] is 11 nM. Moreover, the CC50 at 3 days in series [2] was 55000 nM.
`C=CCC(=O)Nc1ccc(-c2cc3nc(C(=O)N4CCCCCC4C)cc(CC)n3n2)c(F)c1` (stereo not drawn) [Compound E5] showed a melting point of 170 to 175 °C. In addition, the EC50 in series [1] is 138 nM. The same compound yielded a 50% cytotoxic concentration (CC50) at 3 days in series [2] greater than 25100 nM.
Consider `CCc1cc(C(=O)N2Cc3ccccc3CC2C)nc2cc(-c3ccc(C(=O)O)cc3F)nn12` (stereo not drawn) [Compound K3], for which the melting point lay within 150 to 155 °C. The EC50 in series [1] was 1100 nM. Besides, the CC50 at 3 days in series [2] was greater than 25100 nM.
On to `CCc1cc(C(=O)N2CCCCCC2C)nc2c(F)c(-c3ccc(C(N)=O)cc3)nn12` (stereo not drawn) [Compound J2], for which the melting point is 195 to 200 °C. Besides, the EC50 in series [1] was 263 nM. In series [2], this compound gave a CC50 at 3 days greater than 25100 nM.
The compound `CCc1cc(C(=O)N2CCCCC2C)nc2cc(-c3ccc(-c4ccncc4)cc3)nn12` (stereo not drawn) [Compound F1] registered a melting point of 150 to 151 °C. Besides, the EC50 in series [1] is 871 nM. The compound also gave a CC50 at 3 days in series [2] of 38000 nM.
On the same counts, the results for `CC1CCCCCN1C(=O)c1cc(N(C)C2CCCCC2)n2nc(-c3ccc(NC(=O)NCC4CCCO4)cc3)cc2n1` (stereo not drawn) [Compound B12] are 181 to 182 °C, 191 nM and greater than 100000 nM.
In turn, `CC1CCCCCN1C(=O)c1cc(N(C)C2CCCCC2)n2nc(-c3ccc(NC(=O)C4CC4)cc3)cc2n1` (stereo not drawn) [Compound E19] came in with a melting point of 261 to 262 °C. Moreover, the EC50 in series [1] is 537 nM. In series [2], this compound registered a CC50 at 3 days greater than 100000 nM.
On the same counts, the results for `C[C@@H]1CCCCCN1C(=O)c1cc(C2CC2)n2nc(-c3ccc(-n4cc(C(=O)O)cn4)cc3F)cc2n1` [Compound W8] are 232.32 °C, 77.6 nM and 55000 nM.

For orientation: CC50 means the concentration giving 50% cytotoxicity. A lower CC50 goes with harm at low concentration. By melting point is commonly meant the temperature, or range, at which the solid turns liquid.
